Results reported in publication PMC9062088 (RSC Advances, 2019).

How the values were obtained:
human TyrRS = molecular target: T1, human TyrRS (Homo sapiens, UniProt P54577); experiment: ATP–pyrophosphate exchange assay; assay type: biochemical; details: for inhibitory effect on human TyrRS (SAR statement in words): 100 μM screening data of Tables 1 and 2; for remaining activity at 100 µM: read-out: Enzyme activity@100 μM (%)
T1 sequence (P54577 1-341): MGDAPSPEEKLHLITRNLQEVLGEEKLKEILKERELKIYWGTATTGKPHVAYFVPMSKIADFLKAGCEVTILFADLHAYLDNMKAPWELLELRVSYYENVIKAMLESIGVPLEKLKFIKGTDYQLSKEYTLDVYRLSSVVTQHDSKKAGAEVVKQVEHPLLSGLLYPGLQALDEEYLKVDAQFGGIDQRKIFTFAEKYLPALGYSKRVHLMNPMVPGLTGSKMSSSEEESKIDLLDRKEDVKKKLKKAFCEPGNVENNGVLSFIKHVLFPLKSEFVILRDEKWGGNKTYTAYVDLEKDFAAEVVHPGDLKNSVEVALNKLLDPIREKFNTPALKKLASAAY

HeLa cells [1] = experiment: Cellular localization of TyrRS; assay type: cell-based, human; details: HeLa cells, 1.1, 3.3, 10 or 30 μM, 8 h, immunoblot
HeLa cells [2] = experiment: Detection of DNA damage in cells; assay type: cell-based, human; details: pre-treated 24 h (0.37-30 μM), then 30 μM cisplatin 24 h, immunoblot

SMILES | inhibitory effect on human TyrRS (SAR statement in words) (human TyrRS) | remaining activity at 100 µM (human TyrRS) | TyrRS nuclear localization (HeLa cells [1]) | level of γ-H2A.X (DNA damage) (HeLa cells [2])
COc1ccccc1Sc1c(O)c(Sc2ccccc2OC)c2oc(-c3ccccc3)cc(=O)c2c1O [Compound 3] | substantially diminished activity | 88.9% |  | 
Cc1ccccc1Sc1c(O)c(Sc2ccccc2C)c2oc(-c3ccccc3)cc(=O)c2c1O [Compound 8] | substantially diminished activity | 75.9% |  | 
CC(C)(C)c1ccc(Sc2c(O)c(Sc3ccc(C(C)(C)C)cc3)c3oc(-c4ccccc4)cc(=O)c3c2O)cc1 [Compound 9] | substantially diminished activity | 85.3% |  | 
O=c1cc(-c2ccccc2)oc2c(Sc3cccc(O)c3)c(O)c(Sc3cccc(O)c3)c(O)c12 [Compound 11, 5,7-dihydroxy-6,8-bis((3-hydroxyphenyl)thio)-2-phenyl-4H-chromen-4-one] |  |  | dramatically promoted the nuclear localization of TyrRS | dramatically decreased
COc1cc(O)c(Sc2cccc(F)c2)c2oc(-c3ccccc3)cc(=O)c12 [Compound 15] |  | 68.5% |  | 
COc1cc(O)c(Sc2ccc(F)cc2)c2oc(-c3ccccc3)cc(=O)c12 [Compound 16] |  | 76.4% |  | 
COc1cc(O)c(Sc2ccccc2F)c2oc(-c3ccccc3)cc(=O)c12 [Compound 18] |  | 73.8% |  | 
COc1ccc(Sc2c(O)cc(OC)c3c(=O)cc(-c4ccccc4)oc23)cc1 [Compound 21] |  | 73.9% |  | 
O=c1cc(-c2ccccc2)oc2c(Sc3cccc(O)c3)c(O)cc(O)c12 [Compound 26] |  | 93.2% |  | 
O=c1cc(-c2ccccc2)oc2c(Sc3ccccc3O)c(O)cc(O)c12 [Compound 29] |  | 81.9% |  | 
